# Read-outs that look alike come from different tables or passages of the source.
# Key:
# [1] = molecular target: T1, H. sapiens topoisomerase II (Homo sapiens, UniProt P11388); assay: Topoisomerase II relaxation (inhibition) assay; format: biochemical; settings: for IC50: H. sapiens Topoisomerase II inhibition assay, read-out: IC50
# T1 construct: purchased Inspiralis (Norwich, UK)
# Experimental: The topo II reactions were titrated with varying concentrations of A-D and resolved by agarose gel electrophoresis. For IC50 determination the band intensity of the supercoiled plasmid was determined using Adobe Photoshop, plotted vs. [cystobactamide] and fitted using Hill's equation.
# (§1) Following natural product concentrations were used in the assay:
# (§2) Control reactions were: no enzyme and a standard reaction in presence of 5% (v/v) DMSO. All reaction samples were equilibrated for 10 minutes at room-temperature in the absence of DNA. Then the relaxed plasmid was added to start the reaction.
# (§3) To determine IC50 values, the formation of supercoiled (gyrase) or relaxed (topoisomerase I, II IV) plasmid was quantified using Adobe Photoshop (Histogram mode). Plotting of these values versus the compound concentration yielded sigmoidal shaped curves, which were fitted using Hill's equation (Origin Pro 8.5). All determined IC50 values are the averages of three independent experiments.
# [2] = tested on: E. coli strain WT III (marR Δ74 bp); assay: Susceptibility of mutant E. coli strains, MIC; format: cell-based; settings: Escherichia coli
# Experimental: Bacterial wildtype strains used in susceptibility assays were either part of our strain collection or purchased from the German Collection of Microorganisms and Cell Cultures (DSMZ) or from the American Type Culture Collection (ATCC). E. coli strain WT^[6] and E. coli mutants were kindly provided by Prof. Dr. P. Heisig, Pharmaceutical Biology and Microbiology, University of Hamburg.
# MIC values were determined in microdilution assays. Overnight cultures were diluted in the appropriate growth medium to achieve an inoculum of 10^4-10^6 cfu/mL. Yeasts were grown in Myc medium (1% phytone peptone, 1% glucose, 50 mM HEPES, pH 7.0), S. pneumonia and E. faecalis in tryptic soy broth (TSB: 1.7% peptone casein, 0.3% peptone soymeal, 0.25% glucose, 0.5% NaCl, 0.25% K2HPO4; pH 7.3); M. smegmatis in Middlebrook 7H9 medium supplemented with 10% Middlebrook ADC enrichment and 2 ml/l glycerol). All other listed bacteria were grown in Müller-Hinton broth (0.2% beef infusion solids, 1.75% casein hydrolysate, 0.15% starch, pH 7.4). Cystobactamides and reference drugs were added directly to the cultures in sterile 96-well plates as duplicates and serial dilutions were prepared. Microorganisms were grown on a microplate shaker (750 rpm, 30-37° C., 18-48 h), except S. pneumonia, which was grown at non-shaking conditions (37° C., 5% CO2, 18 h). Growth inhibition was assessed by visual inspection and the MIC was defined as the lowest concentration of compound that inhibited visible growth.
# [3] = molecular target: T2, H. sapiens topoisomerase I (Homo sapiens, UniProt P11387); assay: Topoisomerase I relaxation (inhibition) assay; format: biochemical
# T2 construct: purchased Inspiralis (Norwich, UK)
# T2 sequence (P11387 1-765): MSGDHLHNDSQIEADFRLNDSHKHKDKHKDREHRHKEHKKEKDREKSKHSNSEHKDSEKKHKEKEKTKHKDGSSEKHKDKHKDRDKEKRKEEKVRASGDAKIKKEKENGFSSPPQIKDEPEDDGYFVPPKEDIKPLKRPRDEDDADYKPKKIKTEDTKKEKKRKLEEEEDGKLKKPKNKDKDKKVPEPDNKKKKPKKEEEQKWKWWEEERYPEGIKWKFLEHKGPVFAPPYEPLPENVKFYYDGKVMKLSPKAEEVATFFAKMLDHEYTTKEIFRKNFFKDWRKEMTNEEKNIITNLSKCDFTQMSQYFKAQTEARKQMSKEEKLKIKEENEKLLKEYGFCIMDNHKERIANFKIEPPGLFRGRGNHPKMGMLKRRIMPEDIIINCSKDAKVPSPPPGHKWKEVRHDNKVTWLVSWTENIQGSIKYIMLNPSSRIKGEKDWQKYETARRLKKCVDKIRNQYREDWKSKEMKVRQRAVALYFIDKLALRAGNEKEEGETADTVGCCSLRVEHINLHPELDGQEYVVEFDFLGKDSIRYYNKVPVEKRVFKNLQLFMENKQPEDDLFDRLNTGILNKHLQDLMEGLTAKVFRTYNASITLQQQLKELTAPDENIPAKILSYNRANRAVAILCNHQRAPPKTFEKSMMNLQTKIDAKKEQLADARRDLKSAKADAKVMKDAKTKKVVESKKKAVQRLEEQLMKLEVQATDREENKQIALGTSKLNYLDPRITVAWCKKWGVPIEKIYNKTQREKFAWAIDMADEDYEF
# Experimental: Aside the ATP-dependent type IIa topoisomerases like E. coli gyrase, topoIV and human topoII, the activity of cystobactamides on the ATP-independent human topoisomerase I was tested as well.
# The topo I reactions were titrated with varying concentrations of A-D and resolved by agarose gel electrophoresis. For IC50 determination the band intensity of the supercoiled plasmid was determined using Adobe Photoshop, plotted vs. [cystobactamide] and fitted using Hill's equation.
# as §1
# Cystobactamide C: 300 μM; 30 μM; 3 μM
# Control reactions were: no enzyme and a standard reaction in presence of 5% (v/v) DMSO. All reaction samples were equilibrated for 10 minutes at room-temperature in the absence of DNA. Then the relaxed plasmid was added to start the reaction
# as §3
# [4] = molecular target: T3, E. coli topoisomerase IV (Escherichia coli, UniProt P0AFI2+P20083); assay: Topoisomerase IV relaxation (inhibition) assay; format: biochemical
# T3 construct: purchased Inspiralis (Norwich, UK)
# T3 sequence (P20083 whole entry): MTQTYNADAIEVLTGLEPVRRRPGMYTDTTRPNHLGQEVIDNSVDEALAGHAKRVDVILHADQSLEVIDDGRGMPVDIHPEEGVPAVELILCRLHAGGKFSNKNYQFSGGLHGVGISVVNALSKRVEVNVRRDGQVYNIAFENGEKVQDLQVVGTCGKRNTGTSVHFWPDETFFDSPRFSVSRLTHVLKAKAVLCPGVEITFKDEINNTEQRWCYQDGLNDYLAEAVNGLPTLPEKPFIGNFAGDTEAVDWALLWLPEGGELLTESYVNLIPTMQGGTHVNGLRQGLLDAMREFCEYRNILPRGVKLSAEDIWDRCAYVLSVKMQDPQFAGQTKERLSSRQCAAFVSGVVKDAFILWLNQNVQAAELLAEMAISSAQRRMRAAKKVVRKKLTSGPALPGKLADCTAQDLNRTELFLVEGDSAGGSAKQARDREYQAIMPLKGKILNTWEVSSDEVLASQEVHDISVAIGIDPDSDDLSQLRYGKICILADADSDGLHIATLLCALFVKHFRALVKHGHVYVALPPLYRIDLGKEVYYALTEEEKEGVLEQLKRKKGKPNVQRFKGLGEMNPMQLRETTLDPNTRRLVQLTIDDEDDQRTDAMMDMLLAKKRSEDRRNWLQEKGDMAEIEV
# T3 sequence (P0AFI2 whole entry): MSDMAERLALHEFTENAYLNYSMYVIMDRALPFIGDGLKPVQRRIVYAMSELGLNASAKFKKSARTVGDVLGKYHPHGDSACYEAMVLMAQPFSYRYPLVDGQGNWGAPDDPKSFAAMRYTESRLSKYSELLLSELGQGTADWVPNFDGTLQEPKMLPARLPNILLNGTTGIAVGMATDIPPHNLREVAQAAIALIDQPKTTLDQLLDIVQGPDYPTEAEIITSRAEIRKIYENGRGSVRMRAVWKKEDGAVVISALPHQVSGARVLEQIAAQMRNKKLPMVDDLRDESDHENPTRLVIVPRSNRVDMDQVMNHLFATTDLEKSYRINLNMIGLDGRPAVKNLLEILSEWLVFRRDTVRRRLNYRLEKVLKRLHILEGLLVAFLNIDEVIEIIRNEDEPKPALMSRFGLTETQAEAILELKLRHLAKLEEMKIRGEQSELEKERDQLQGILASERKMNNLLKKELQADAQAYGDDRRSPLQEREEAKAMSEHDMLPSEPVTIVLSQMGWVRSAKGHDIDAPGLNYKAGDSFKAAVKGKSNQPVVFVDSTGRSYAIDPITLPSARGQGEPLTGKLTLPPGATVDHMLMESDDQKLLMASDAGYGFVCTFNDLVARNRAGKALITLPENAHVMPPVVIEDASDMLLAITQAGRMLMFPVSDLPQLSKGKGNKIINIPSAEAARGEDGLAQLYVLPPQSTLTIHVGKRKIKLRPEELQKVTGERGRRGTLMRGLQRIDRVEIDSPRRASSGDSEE
# Experimental: Prokaryotic DNA gyrase and topoisomerase IV share a high degree of homology and gyrase inhibitors typically show a topoisomerase IV inhibitory activity.^8 To test the influence of the cystobactamides on topoisomerase IV a commercial E. coli topoisomerase IV kit (Inspiralis) was used.
# The topo IV reactions were titrated with varying concentrations of A-D and resolved by agarose gel electrophoresis. For IC50 determination the band intensity of the supercoiled plasmid was determined using Adobe Photoshop, plotted vs. [cystobactamide] and fitted using Hill's equation.
# as §1, §2, §3
# [5] = molecular target: T4, E. coli gyrase (Escherichia coli, UniProt P0AES4+P0AES6); assay: Gyrase supercoiling (inhibition) assay; format: biochemical
# T4 construct: purchased Inspiralis (Norwich, UK)
# T4 sequence (P0AES4 whole entry, one chain of several): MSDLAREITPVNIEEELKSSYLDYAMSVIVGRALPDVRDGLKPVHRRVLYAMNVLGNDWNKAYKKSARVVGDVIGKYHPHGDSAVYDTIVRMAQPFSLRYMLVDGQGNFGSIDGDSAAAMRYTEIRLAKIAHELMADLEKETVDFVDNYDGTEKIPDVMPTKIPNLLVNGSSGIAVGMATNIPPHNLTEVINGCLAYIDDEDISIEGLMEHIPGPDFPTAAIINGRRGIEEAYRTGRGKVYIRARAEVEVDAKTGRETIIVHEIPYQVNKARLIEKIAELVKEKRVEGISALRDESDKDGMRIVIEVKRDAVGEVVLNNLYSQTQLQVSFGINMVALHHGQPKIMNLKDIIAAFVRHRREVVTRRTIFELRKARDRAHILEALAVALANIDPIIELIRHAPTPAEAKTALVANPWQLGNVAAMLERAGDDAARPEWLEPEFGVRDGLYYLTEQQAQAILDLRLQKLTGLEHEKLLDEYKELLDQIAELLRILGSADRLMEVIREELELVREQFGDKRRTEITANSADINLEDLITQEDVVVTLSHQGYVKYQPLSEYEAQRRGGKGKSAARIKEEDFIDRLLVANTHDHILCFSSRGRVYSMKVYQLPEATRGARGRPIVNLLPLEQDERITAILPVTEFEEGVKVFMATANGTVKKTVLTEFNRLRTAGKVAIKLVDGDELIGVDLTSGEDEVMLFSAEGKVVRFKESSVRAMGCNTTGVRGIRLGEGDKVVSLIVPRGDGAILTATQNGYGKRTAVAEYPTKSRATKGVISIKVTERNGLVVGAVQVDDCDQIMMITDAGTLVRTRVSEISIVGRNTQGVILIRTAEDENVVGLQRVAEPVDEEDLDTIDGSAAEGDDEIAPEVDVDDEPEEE
# Experimental: To test the anti-gyrase activity of cystobactamides, commercial E. coli gyrase supercoiling kits (Inspiralis) were used.
# For IC50 determination the band intensity of the supercoiled plasmid was determined using Adobe Photoshop, plotted vs. [cystobactamide] and fitted using Hill's equation.
# All natural products stock solutions and dilutions were prepared in 100% DMSO and added to the supercoiling reactions giving a final DMSO concentration of 5% (v/v).
# as §1
# Control reactions were: no enzyme and a standard reaction in presence of 5% (v/v) DMSO.
# All reaction samples were equilibrated for 10 minutes at room-temperature in the absence of DNA. Then the relaxed plasmid was added to start the reaction.
# To determine IC50 values, the formation of supercoiled (gyrase) or relaxed (topoisomerase I, II IV) plasmid was quantified using Adobe Photoshop (Histogram mode). […] All determined IC50 values are the averages of three independent experiments.
# [6] = IC50 in the Gyrase inhibition assay, table, averages of three independent experiments
# [7] = apparent IC50, E. coli gyrase, E. coli gyrase 20.5 nM eq. 1 unit
# T1 sequence (P11388 whole entry): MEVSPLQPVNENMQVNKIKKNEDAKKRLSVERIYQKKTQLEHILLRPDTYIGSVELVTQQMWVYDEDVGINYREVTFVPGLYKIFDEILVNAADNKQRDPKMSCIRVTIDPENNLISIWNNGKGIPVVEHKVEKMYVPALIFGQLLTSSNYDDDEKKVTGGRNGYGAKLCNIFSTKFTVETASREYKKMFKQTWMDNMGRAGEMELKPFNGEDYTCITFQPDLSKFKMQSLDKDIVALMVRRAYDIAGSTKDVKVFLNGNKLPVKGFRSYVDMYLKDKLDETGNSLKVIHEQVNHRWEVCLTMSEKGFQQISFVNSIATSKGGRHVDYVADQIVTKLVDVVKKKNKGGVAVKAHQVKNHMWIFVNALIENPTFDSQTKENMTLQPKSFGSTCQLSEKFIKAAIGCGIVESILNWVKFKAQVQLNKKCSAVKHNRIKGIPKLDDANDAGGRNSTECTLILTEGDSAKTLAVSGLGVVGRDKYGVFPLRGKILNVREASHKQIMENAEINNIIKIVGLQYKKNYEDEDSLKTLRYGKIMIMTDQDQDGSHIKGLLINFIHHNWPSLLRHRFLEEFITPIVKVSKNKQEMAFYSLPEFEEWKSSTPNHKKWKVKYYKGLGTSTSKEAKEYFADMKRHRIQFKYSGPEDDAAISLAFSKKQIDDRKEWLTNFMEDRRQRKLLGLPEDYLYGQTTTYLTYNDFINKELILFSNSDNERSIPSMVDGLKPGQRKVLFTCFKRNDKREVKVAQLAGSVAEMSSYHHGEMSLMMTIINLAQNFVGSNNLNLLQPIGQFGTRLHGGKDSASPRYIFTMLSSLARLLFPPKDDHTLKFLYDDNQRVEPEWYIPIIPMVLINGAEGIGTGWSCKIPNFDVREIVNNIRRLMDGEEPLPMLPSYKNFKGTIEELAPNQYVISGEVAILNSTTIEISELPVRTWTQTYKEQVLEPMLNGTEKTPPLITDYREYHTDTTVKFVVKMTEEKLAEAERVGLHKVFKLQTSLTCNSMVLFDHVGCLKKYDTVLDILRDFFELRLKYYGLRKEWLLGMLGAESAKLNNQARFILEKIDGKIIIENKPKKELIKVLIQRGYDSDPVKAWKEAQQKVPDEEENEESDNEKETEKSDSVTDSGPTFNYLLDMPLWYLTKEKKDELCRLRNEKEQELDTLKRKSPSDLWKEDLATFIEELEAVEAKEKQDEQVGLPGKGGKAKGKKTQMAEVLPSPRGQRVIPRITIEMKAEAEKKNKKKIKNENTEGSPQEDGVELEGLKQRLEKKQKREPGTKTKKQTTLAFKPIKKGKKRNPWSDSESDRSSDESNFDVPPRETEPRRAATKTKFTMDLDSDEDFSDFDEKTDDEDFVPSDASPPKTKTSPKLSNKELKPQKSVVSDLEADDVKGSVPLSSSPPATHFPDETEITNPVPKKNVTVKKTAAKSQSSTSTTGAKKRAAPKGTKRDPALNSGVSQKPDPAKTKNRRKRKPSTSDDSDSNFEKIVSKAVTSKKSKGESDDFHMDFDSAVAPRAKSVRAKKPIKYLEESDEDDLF
Structure (SMILES),IC50 [1] [µM],concentration at which human topo II activity was inhibited (only the highest tested concentration) [1] [µM],MIC [2] [µg/mL],IC50 [3] [µM],"IC50 ([4]; E. coli topoisomerase IV, read-out: IC50 Topo IV) [µM]","IC50 ([4]; averages of three independent experiments, read-out: IC50 in the E. coli Topoisomerase IV inhibition assay) [µM]",concentration at which E. coli topo IV activity was inhibited (only the highest tested concentration) [4] [µM],ratios IC50(topo IV)/IC50(gyrase) ([4]; topo IV vs. gyrase),"IC50 ([5]; IC50 gyrase, E. coli gyrase) [µM]","IC50 [5, 6] [µM]","IC50 [5, 7] [µM]","IC50 ([4]; IC50 Topo IV, E. coli topoisomerase IV) [µM]","IC50 ([4]; IC50 in the E. coli Topoisomerase IV inhibition assay, averages of three independent experiments) [µM]"
"CC(C)Oc1cc(C(=O)O)ccc1NC(=O)c1ccc(NC(=O)c2ccc(N)cc2)c(OC(C)C)c1O [cystobactamide C, Cystobactamide C]",> 60,300,65,~6,~300,> 60,300,~42,7.2,7.2,7.7,–,–
"CO[C@H](C(=O)Nc1ccc(C(=O)Nc2ccc(C(=O)Nc3ccc(C(=O)O)cc3OC(C)C)c(O)c2OC(C)C)cc1)[C@H](NC(=O)c1ccc(NC(=O)c2ccc([N+](=O)[O-])cc2)cc1)C(=O)O [cystobactamide A, Cystobactamide A]",> 160,815,14.7,~1,–,–,815,–,6,6,6,~815,> 160

# Source: patent US11225503B2, “Crystobactamides” (HELMHOLTZ-ZENTRUM FÜR INFEKTIONSFORSCHUNG GMBH, priority 2013, dated 2022)
